Data taken from patent publication US10576078B2 (Council of Scientific & Industrial Research, priority 2017, dated 2020).

Assays:
K562 cells = experiment: Apoptosis by annexin V/PI staining and flow cytometry in K562 cells; type: cell-based, Human; settings: 48 h
Method: K562 cells were treated with CFZ for 48 h and apoptosis was analyzed by annexin V and propidium iodide (PI) staining followed by flow-cytometry (FACSCalibur, BD biosciences). (C) Mean±SEM of three independent experiments are plotted. (D) Representative dot plot.

[1] = tested on: aldehyde dehydrogenase (ALDH) activity in CP-CML cells; experiment: Aldefluor assay of aldehyde dehydrogenase activity; type: cell-based, Human; settings: imatinib-resistant CP-CML cells, n=6, 5 μM, 48 h
Method: CP-CML cells from imatinib-resistant patients (n=6) were treated with CFZ or salinomycin (5 μM; 48 h) and aldehyde dehydrogenase activity in these cells were assessed using an ALDEFLUOR kit (Stemcell technologies). ***p<0.0001.
CP-CML cells isolated from imatinib-resistant patients were treated with vehicle (V; 0.1% DMSO), CFZ or salinomycin (both 5 μM) for 48 h (FIG. 2C). Aldehyde dehydrogenase activity in CP-CML cells was assessed using an Aldefluor kit ([…] technologies) by flow cytometry (FACSCalibur).

stat5 = experiment: Immunoblotting of stat5 expression and phosphorylation in K562 cells; type: cell-based, Human
Method: K562 cells were treated as indicated for 72 h and stat5 expression was assessed by immunoblotting. Pioglitazone (Pio) was used as a positive control. Data is one representative of 3 independent experiments.
K562 cells were treated as indicated for 30 min and stat5 phosphorylation at Y694 or CrkL phosphorylation at Y207 were assessed by immunoblotting. Total stat5 or β-actin expression was assessed to ensure equal loading. Pio was used as a negative control and IMT was used as a positive control. Data is one representative of 3 independent experiments.
K562 cells were cultured in 6 well plates and treated as indicated in figures or descriptions of FIG. 1E, FIG. 1G and FIG. 2D-E. Cells were then homogenized in lysis buffer containing 50 mM Tris-HCl, pH 7.5, 150 mM NaCl, 1% NP40, 5 mM EDTA, 1 mM DTT, protease and phosphatase inhibitor cocktails (Sigma) and incubated on ice for 30 min followed by 5 cycles of freeze-thaw. Samples were then centrifuged at 14000 rpm at 4° C. for 30 min. Supernatants were then quantified by Bichinchonic acid (Sigma)-based protein estimation. Equal amount of proteins were solubilized in Laemmli buffer, and were resolved by 10%-12% SDS PAGE and transferred onto PVDF membranes (Millipore; Billerica, Mass.). […] Immunoreactivity was detected using a chemiluminescent HRP Substrate (Millipore) in a LAS 4010 Chemi-doc Imager (GE Healthcare, Little Chalfont, UK). […]

CP-CML cells = experiment: Megakaryocytic surface markers in CP-CML cells by flow cytometry; type: cell-based, Human; settings: 2.5 μM CFZ, 72 h
Method: FIG. 3D-3E in particular show CFZ induces megakaryocytic surface markers CD61 and CD41 in CP-CML cells. CD61 (D) and CD41 (E) surface expression in CP-CML (gated monocytes) cells after treatment with 2.5 μM CFZ for 72 h were assessed by flowcytometry. *p<0.05, ***p<0.0001.
Differentiation analyses by flow cytometry: K562 (FIG. 3B-C) or primary CP-CML cells (FIG. 3D-E) were treated with vehicle, CFZ and PMA as indicated in the respective figures and figure descriptions for 72 hrs. Cells were then harvested, washed, and centrifuged, resuspended in 100 μl PBS and were stained with CD41-FITC or CD61-PE antibodies for 30 min at room temperature (in dark). After incubation, the cells were washed and resuspended in 300 μl PBS and were analyzed on a FACSCalibur flow cytometer.

[2] = tested on: CD34+ cells from imatinib-resistant patients (quiescent LSCs); experiment: CFSE assay of quiescent LSCs; type: cell-based, Human
Method: Cells were gated depending on CFSE intensity. […] Apoptosis in these cells was determined by annexin V staining.
For assessing apoptosis in quiescent LSCs, purified CD34^+ cells were first stained with carboxyfluorescein succinimidyl ester (CFSE; Invitrogen) for 30 min. Cells were then washed and resuspended in SFM medium with 5 growth factors and were kept at 37° C. overnight. Next day, cells were treated as indicated in SFM medium with growth factors and were maintained further for 4 days with supplementation of the drugs every 48 h (drug concentrations in FIG. 5 and its description). Cells were then harvested, washed, and were labeled with CD34-PE and Annexin-APC antibodies and then gated into non-dividing cells (CD34^+CFSE^bright) and dividing cell (CD34^+CFSE^dim) population based on CFSE fluorescence intensity. […] Number of cells or apoptosis was determined by flowcytometry.

[3] = rat, in vivo, po
Excerpt: Sprague-Dawley rats (n=6 per group) were divided into 3 groups. […] Plasma was separated and processed for analysis by LC-MS/MS. For pharmacokinetic and statistical analysis, plasma concentration versus time data were plotted and analyzed by non-compartmental analysis method using WinNonlin (Pharsight, Mountain View, Calif.) software.
For this SD rats (n=6 per group) were divided into 3 groups. […] Plasma was separated and processed for analysis by LC-MS/MS. For pharmacokinetic and statistical analysis, plasma concentration versus time data were plotted and analyzed by non-compartmental analysis method using WinNonlin (Pharsight, Mountain View, Calif.) software.

[4] = cited from earlier work

CC(C)/N=c1\cc2n(-c3ccc(Cl)cc3)c3ccccc3nc-2cc1Nc1ccc(Cl)cc1 [CFZ, Clofazimine]
apoptosis by Annexin V staining (K562 cells): concentration-dependently induces apoptosis
aldehyde dehydrogenase (ALDH) activity [1]: remarkably decreased
stat5 phosphorylation (stat5; 30 min, Y694): without altering
stat5 protein expression (stat5; 72 h, FIG. 2D): suppressed
megakaryocytic surface marker CD41 (CP-CML cells): increased
megakaryocytic surface marker CD61 (CP-CML cells): increased
apoptosis in CFSE-bright cells ([2]; 96 h, annexin V): robust apoptosis
apoptosis in CFSE-dim cells ([2]; 96 h, annexin V): robust apoptosis
CFSE-dim (dividing cell) population ([2]; n=3, 96 h): increased
number of CFSE-bright (non-dividing) cells ([2]; n=3, 96 h): drastically reduced
Tmax in combination group compared to individual groups [3]: no change
clearance in combination group compared to individual groups [3]: lower
average human plasma level of CFZ ([4]; following daily oral administration of 100 mg CFZ): 0.7 mg/L
human plasma Cmax of CFZ ([4]; human plasma): 0.4 to 4 µg/mL
